Laboratory results reported in patent US10336808B2, “MHC peptide complexes and uses thereof in infectious diseases” (priority 2007, dated 2019).

Experiments:
Assay type in all cases: cell-based, human
[1] = system: T2 cells loaded with peptide; assay: 51-Cr release assay of expanded T cell clones
Experimental: The ten expanded T cell clones isolated by Flow sorting as shown in example 39 were tested for their specificity by analysis in a standard 51-Cr release assay. […] One of these BclX(L)173-182 specific CD8 T-cell clones [Clone 9] were expanded for further analyses.

[2] = system: Bcl-X(L)-specific, CD8 positive T cells in PBL; assay: ELISPOT ex vivo with BclX(L) peptide; conditions: PBL from a breast cancer patient, with vs without peptide, FIG. 15
Experimental: In example 22 the best binding BclX(L) 10-mer peptide for HLA-A*0201 was identified to be […] (SEQ ID NO.: 46196). This peptide has then been tested in ELISPOT to see if it were able to detect the presence Bcl-X(L)-specific, CD8 positive T cells in PBL (Peripheral Blood Lymphocytes) from a breast cancer patient. PBL from a breast cancer patient was analyzed by ELISPOT ex vivo either with or without the Bcl-X(L)173-182 peptide ([…] (SEQ ID NO.: 46196)), […] in doublets. The number of spots was counted using the Immunospot Series 2.0 Analyzer (CTL Analysers).

[3] = system: T2 cells pulsed with peptide; assay: 51Cr-release assays with Bcl-X(L)173-182 specific clone 9
Source text: The Bcl-X(L)173-182 specific clone 9 was expanded for additional 2 weeks before the cytotoxic potential was examined further in 51Cr-release assays.

[4] = CD8 T-cell clones 8, 9, 10, 11 and 12, FIG. 17

Sequence	lysis of peptide pulsed T2 cells [1, 4]	ELISPOT detection of Bcl-X(L)-specific CD8 positive T cells (number of spots) [2]	lysis of peptide pulsed T2 cells ([1]; expanded clones 7, 13, 15, 17 and 18)	cell lysis of T2 cells pulsed with different concentrations of peptide ([3]; clone 9, E:T ratio 1:1, FIG. 18)	cell lysis of peptide pulsed T2 cells ([3]; clone 9, three E:T ratios, vs irrelevant peptide, FIG. 18)
GLQHWVPEL [BA4697-105, irrelevant peptide, reference compound]	without killing	–	–	–	–
YLNDHLEPWI	effectively lysed	clearly shows the presence of BclX(L) specific T-cells	did not show specific lysis	significant even at low concentrations	necessary to get killing of the target cell
